#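 48-hour exposure; five concentrations; linearly interpolated endpoints. GI50 = concentration required for 50% inhibition of growth. Definition used: TGI = concentration required for complete inhibition of growth.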
# Key:
# Assay in all cases: growth of human tumour cells (NCI), 48 h
# [1] = system: KM12 colon
# [2] = system: HOP-62 NSCLC
# [3] = system: SK-MEL-2 melanoma
# [4] = system: COLO 205 colon
# [5] = system: ACHN renal
# [6] = system: PC-3 prostate
# [7] = system: HCT-116 colon
# [8] = system: MALME-3M melanoma
# [9] = system: MDA-MB-231 breast
# [10] = system: CAKI-1 renal
# [11] = system: 786-0 renal
# [12] = system: OVCAR-8 ovarian
# [13] = system: HL-60(TB) leukemia
# [14] = system: NCI-H460 lung
# [15] = system: OVCAR-5 ovarian
# [16] = system: NCI-H23 lung
# [17] = system: BT-549 breast
# [18] = system: CCRF-CEM leukemia
# [19] = system: SR leukemia
# [20] = system: K-562 leukemia
# [21] = system: HT29 colon
# [22] = system: EKVX NSCLC
# [23] = system: SN12C renal
# [24] = system: M14 melanoma
# [25] = system: NCI/ADR-RES ovarian
# [26] = system: SK-OV-3 ovarian
# [27] = system: OVCAR-3 ovarian
# [28] = system: MOLT-4 leukemia
# [29] = system: A549 NSCLC
compound,measurement,setting,value
CC12OOC(C)(OO1)C2CCC(=O)OCCNc1ccnc2cc(Cl)ccc12 (stereo not drawn),GI50,[1],> 18.3 µM
same,TGI,[1],> 18.3 µM
same,GI50,[2],> 18.3 µM
same,TGI,[2],> 18.3 µM
same,GI50,[3],> 18.3 µM
same,TGI,[3],> 18.3 µM
same,GI50,[4],3.57 µM
same,TGI,[4],10.8 µM
same,GI50,[5],1.59 µM
same,TGI,[5],3.81 µM
same,GI50,[6],> 18.3 µM
same,TGI,[6],> 18.3 µM
same,GI50,[7],3.59 µM
same,TGI,[7],8.67 µM
same,GI50,[8],3.1 µM
same,TGI,[8],5.98 µM
same,GI50,[9],> 18.3 µM
same,TGI,[9],> 18.3 µM
same,GI50,[10],3.21 µM
same,TGI,[10],5.96 µM
same,GI50,[11],4.95 µM
same,TGI,[11],16.5 µM
same,GI50,[12],16.8 µM
same,TGI,[12],> 18.3 µM
same,GI50,[13],> 18.3 µM
same,TGI,[13],> 18.3 µM
same,GI50,[14],6.3 µM
same,TGI,[14],> 18.3 µM
same,GI50,[15],> 18.3 µM
same,TGI,[15],> 18.3 µM
same,GI50,[16],> 18.3 µM
same,TGI,[16],> 18.3 µM
same,GI50,[17],> 18.3 µM
same,TGI,[17],> 18.3 µM
same,GI50,[18],5.36 µM
same,TGI,[18],17.5 µM
same,GI50,[19],3.35 µM
same,TGI,[19],8.03 µM
same,GI50,[20],4.11 µM
same,TGI,[20],11.8 µM
same,GI50,[21],3.46 µM
same,TGI,[21],8.62 µM
same,GI50,[22],> 18.3 µM
same,TGI,[22],> 18.3 µM
same,GI50,[23],> 18.3 µM
same,TGI,[23],> 18.3 µM
same,GI50,[24],10.8 µM
same,TGI,[24],> 18.3 µM
same,GI50,[25],> 18.3 µM
same,TGI,[25],> 18.3 µM
same,GI50,[26],> 18.3 µM
same,TGI,[26],> 18.3 µM
same,GI50,[27],3.71 µM
same,TGI,[27],7.21 µM
same,GI50,[28],16.8 µM
same,TGI,[28],> 18.3 µM
same,GI50,[29],4.17 µM
same,TGI,[29],12.2 µM
